Data on one molecule can be found in patent publication US11535607B2, “Isoindolines as HDAC inhibitors” (Valo Health, Inc., priority 2018, dated 2022).

Where two headings read alike, the source gives them in different places.

The target in one data set is HDAC5 (Homo sapiens (Human), UniProt Q9UQL6). Nature of the data set: HDAC5 electrophoretic mobility shift assay. The format is biochemical. The conditions noted are these: Table 7, read-out: HDAC IC50, HDAC 5.
Another data set deals with full-length human HDAC11 (Homo sapiens (Human), UniProt Q96DB2). Kind of data set: HDAC11 deacetylase electrophoretic mobility shift assay (Nanosyn). The format is biochemical. The conditions noted are these: for IC50: mobility shift assay. The method, then: The measurement of HD AC 11 deacetylase activity was performed using an electrophoretic mobility shift assay by Nanosyn (Santa Clara, Calif.). Full length human recombinant HD AC 11 protein was expressed in baculoviral system and purified by affinity chromatography. The enzymatic reactions were assembled in 384 well plates in a total volume of 25 μL in a reaction buffer composing: 100 mM HEPES, pH 7.5, 25 mM KCl, 0.1% bovine serum albumin, 0.01% Triton X-100, 1% DMSO (from compounds), 2 μM of the fluorescently labeled peptide substrate and enzyme. The enzyme was added at a final concentration of 10 nM. The peptide substrate FAM-RHKK(tri-fluor-Ac)—NH2 was used. The compounds were tested at 12 concentrations spaced by 3× dilution intervals. Negative control samples (0%-inhibition in the absence of inhibitor) and positive control samples (100%-inhibition) were assembled in replicates of four in each assay plate. The reactions were incubated at 25° C. and quenched by the addition of 45 μL of termination buffer (100 mM HEPES, pH 7.5, 0.01% Triton X-100, 0.05% SDS).
The terminated assay plates were analyzed on LabChip® 3000 microfluidic electrophoresis instrument (Perkin Elmer/Caliper Life Sciences). The fluorescence intensity of the electrophoretically separated de-acetylated product and substrate peptide was measured. Activity in each sample was determined as the product to sum ratio (PSR): P/(S+P), where P is the peak height of the product peptide and S is the peak height of the substrate peptide. Percent inhibition (Pinh) is determined using the following equation: Pinh=(PSR0%−PSRinh)/(PSR0%−PSR100%)*100, where PSRinh, is the product sum ratio in the presence of inhibitor, PSR0% is the average product sum ration in the absence of inhibitor and PSR100% is the average product sum ratio in 100%-inhibition control samples. The IC50 values of inhibitors were determined by fitting the percent inhibition curves with 4 parameter dose-response model using XLfit 4 software.

Another data set concerns the target HDAC6 (Homo sapiens (Human), UniProt Q9UBN7). Nature of the data set: HDAC6 electrophoretic mobility shift assay. It is filed as biochemical. The conditions noted are these: mobility shift assay, Table 7; read-out: HDAC IC50, HDAC 6. For orientation: A gel shift assay detects complexes by their altered migration in electrophoresis.
Data set [1] is described as follows: In vitro intrinsic clearance after incubation with mouse liver microsomes. It is filed as in vitro ADME. The conditions noted are these: Table 6. (In general: Microsomes from liver hold many membrane-bound enzymes, among them those of drug oxidation.)
The target of the next data set is HDAC7 (Homo sapiens (Human), UniProt Q8WUI4). Kind of data set: HDAC7 electrophoretic mobility shift assay. It is filed as biochemical. The conditions noted are these: Table 7, read-out: HDAC IC50, HDAC 7.
Another data set deals with HDAC9 (Homo sapiens (Human), UniProt Q9UKV0). Nature of the data set: HDAC9 electrophoretic mobility shift assay. The format is biochemical. The conditions noted are these: Table 7, read-out: HDAC IC50, HDAC 9.
In another data set the target is HDAC2 (Homo sapiens (Human), UniProt Q92769). Kind of data set: HDAC2 electrophoretic mobility shift assay. It is filed as biochemical. The conditions noted are these: Table 7, read-out: HDAC IC50, HDAC 2.
The target in a further data set is HDAC4 (Homo sapiens (Human), UniProt P56524). Nature of the data set: HDAC4 electrophoretic mobility shift assay. The conditions noted are these: Table 7, read-out: HDAC IC50, HDAC 4. The format is biochemical.
The next data set addresses HDAC8 (Homo sapiens (Human), UniProt Q9BY41). Nature of the data set: HDAC8 electrophoretic mobility shift assay. It is filed as biochemical. The conditions noted are these: Table 7, read-out: HDAC IC50, HDAC 8.
The target of data set [2] is HDAC11 fused to Nanoluc luciferase (Homo sapiens (Human), UniProt Q96DB2). Nature of the data set: BRET target engagement cell assay. For orientation: BRET reads energy transfer from a luciferase to a nearby fluorophore.
In another data set the target is HDAC11 (Homo sapiens (Human), UniProt Q96DB2). Nature of the data set: Lipophilic efficiency (pIC50 HDAC11 - clogD7.4). The conditions noted are these: pIC50 HDAC11 - clogD7.4, Table 6.
In data set [3] the test system is other 10 members of the HDAC family. Kind of data set: HDAC family selectivity profile, electrophoretic mobility shift assays. It is filed as biochemical, human. The conditions noted are these: HDAC 1-11 profile.
The target of a further data set is HDAC1 (Homo sapiens (Human), UniProt Q13547). Nature of the data set: HDAC1 electrophoretic mobility shift assay. It is filed as biochemical. The conditions noted are these: Table 7, read-out: HDAC IC50, HDAC 1.
In another data set the target is HDAC10 (Homo sapiens (Human), UniProt Q969S8). Kind of data set: HDAC10 electrophoretic mobility shift assay. The format is biochemical. The conditions noted are these: Table 7, read-out: HDAC IC50, HDAC 10.
A further data set deals with HDAC3 (Homo sapiens (Human), UniProt O15379). Kind of data set: HDAC3 electrophoretic mobility shift assay. The conditions noted are these: Table 7, read-out: HDAC IC50, HDAC 3. The format is biochemical.
A short description of data set [4]: Kinetic solubility at pH 7.4. The conditions noted are these: aqueous buffer, kinetic from dmso stock. It is filed as physicochemical.

full-length human HDAC11, sequence (Q96DB2 whole entry): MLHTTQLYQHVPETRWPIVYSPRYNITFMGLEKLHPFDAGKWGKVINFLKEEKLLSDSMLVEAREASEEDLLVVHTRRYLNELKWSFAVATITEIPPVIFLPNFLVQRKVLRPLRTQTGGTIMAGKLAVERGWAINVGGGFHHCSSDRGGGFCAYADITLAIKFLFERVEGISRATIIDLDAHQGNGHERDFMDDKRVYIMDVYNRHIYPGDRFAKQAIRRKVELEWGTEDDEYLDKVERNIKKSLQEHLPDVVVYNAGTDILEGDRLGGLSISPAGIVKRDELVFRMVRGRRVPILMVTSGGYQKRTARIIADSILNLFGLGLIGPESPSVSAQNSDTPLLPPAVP
HDAC1, sequence (Q13547 whole entry): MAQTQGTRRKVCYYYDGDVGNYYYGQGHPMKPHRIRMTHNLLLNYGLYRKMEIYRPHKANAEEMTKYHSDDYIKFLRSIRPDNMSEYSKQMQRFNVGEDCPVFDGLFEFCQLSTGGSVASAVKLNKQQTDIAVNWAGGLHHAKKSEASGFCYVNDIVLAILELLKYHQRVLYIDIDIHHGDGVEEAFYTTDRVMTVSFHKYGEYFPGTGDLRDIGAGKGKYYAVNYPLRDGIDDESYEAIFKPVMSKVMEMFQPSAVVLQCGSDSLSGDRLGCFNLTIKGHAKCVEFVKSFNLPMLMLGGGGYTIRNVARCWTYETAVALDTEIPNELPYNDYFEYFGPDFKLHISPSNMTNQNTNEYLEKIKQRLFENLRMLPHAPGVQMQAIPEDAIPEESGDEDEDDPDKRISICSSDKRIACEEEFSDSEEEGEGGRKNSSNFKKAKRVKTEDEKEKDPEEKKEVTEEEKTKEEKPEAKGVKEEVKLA
HDAC10, sequence (Q969S8 whole entry): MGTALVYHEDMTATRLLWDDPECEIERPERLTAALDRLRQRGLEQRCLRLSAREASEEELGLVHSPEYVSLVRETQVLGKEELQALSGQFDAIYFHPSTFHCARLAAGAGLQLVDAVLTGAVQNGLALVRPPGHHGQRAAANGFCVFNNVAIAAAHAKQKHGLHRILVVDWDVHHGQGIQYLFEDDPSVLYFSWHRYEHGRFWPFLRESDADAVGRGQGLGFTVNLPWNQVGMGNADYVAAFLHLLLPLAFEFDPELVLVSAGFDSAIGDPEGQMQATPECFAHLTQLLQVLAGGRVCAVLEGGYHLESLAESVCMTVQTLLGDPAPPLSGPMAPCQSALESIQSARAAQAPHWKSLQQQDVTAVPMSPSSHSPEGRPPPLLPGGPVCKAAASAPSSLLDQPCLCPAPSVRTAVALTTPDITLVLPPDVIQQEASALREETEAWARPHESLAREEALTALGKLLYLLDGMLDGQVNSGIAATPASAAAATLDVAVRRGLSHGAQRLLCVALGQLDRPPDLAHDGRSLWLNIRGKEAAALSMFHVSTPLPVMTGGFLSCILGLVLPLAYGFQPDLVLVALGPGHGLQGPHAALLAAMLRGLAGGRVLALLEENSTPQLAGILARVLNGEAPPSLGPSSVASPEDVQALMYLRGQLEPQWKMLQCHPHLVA
HDAC4, sequence (P56524 whole entry): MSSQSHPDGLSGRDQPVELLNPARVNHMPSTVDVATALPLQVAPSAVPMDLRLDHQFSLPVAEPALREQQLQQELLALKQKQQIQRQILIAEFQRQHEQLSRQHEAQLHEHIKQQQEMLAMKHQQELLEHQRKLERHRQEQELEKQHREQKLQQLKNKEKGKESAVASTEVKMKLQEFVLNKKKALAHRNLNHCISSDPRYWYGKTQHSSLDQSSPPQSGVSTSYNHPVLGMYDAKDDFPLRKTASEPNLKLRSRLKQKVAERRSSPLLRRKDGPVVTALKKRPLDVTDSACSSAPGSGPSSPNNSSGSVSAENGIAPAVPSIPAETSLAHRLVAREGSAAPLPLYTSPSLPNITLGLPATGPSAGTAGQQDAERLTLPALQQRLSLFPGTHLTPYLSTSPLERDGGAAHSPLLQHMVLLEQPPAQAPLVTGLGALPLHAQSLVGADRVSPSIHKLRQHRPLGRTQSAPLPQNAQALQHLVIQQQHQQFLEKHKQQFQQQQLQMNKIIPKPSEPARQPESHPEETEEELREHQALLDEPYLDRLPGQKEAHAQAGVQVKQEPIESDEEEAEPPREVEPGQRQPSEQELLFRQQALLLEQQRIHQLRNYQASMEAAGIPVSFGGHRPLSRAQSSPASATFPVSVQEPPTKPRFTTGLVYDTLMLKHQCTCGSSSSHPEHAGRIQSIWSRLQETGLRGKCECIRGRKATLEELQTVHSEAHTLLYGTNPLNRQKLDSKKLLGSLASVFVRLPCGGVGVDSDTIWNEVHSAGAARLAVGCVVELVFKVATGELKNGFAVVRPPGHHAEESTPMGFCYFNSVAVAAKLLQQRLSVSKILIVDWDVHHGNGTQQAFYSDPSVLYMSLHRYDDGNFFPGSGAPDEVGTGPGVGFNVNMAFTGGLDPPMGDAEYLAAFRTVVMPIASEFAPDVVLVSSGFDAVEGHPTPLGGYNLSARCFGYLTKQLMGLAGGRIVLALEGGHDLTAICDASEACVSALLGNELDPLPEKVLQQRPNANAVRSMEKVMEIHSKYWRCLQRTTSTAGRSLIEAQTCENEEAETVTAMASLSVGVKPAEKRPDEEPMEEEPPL
HDAC9, sequence (Q9UKV0 whole entry): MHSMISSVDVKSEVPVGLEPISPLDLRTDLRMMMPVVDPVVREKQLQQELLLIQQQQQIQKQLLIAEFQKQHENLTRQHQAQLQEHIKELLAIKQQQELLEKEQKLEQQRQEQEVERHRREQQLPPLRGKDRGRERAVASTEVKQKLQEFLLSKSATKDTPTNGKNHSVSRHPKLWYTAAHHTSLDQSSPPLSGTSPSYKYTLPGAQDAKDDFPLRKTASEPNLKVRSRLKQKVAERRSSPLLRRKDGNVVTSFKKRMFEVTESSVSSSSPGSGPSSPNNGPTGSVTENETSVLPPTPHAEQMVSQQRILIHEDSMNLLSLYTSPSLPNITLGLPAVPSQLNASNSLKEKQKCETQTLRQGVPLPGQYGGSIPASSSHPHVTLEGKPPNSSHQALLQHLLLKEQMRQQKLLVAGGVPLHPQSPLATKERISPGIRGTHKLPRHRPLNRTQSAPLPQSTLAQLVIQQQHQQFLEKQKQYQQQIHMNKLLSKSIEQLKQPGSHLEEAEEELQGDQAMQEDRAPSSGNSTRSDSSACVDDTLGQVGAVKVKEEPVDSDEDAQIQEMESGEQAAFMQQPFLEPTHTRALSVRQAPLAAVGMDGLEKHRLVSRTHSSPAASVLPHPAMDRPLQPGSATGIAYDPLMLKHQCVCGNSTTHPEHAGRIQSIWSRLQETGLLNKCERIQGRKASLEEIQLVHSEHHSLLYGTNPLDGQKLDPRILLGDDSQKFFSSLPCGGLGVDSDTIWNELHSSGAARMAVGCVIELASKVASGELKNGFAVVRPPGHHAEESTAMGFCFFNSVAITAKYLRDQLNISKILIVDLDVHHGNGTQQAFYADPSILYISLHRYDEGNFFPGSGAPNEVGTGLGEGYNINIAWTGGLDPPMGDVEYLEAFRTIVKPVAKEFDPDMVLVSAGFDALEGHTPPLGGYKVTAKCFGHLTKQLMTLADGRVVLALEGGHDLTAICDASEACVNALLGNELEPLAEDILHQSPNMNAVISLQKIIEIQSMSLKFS
HDAC3, sequence (O15379 whole entry): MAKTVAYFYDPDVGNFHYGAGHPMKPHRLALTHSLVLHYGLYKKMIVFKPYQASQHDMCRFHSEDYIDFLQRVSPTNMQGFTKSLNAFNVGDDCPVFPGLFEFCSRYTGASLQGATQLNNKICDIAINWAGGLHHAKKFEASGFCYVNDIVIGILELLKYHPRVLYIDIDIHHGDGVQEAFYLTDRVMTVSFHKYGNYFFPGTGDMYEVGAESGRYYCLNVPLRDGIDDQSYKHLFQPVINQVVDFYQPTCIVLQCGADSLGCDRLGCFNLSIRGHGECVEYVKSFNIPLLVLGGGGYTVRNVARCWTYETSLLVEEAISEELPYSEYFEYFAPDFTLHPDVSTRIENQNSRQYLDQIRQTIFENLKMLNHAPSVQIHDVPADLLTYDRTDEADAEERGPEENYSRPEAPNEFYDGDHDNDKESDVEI
HDAC3, sequence (Q9Y618 395-489 partner): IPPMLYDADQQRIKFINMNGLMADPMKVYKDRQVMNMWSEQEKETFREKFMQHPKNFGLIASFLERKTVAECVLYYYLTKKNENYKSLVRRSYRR
HDAC8, sequence (Q9BY41 whole entry, species assumed, the tested form may be a part): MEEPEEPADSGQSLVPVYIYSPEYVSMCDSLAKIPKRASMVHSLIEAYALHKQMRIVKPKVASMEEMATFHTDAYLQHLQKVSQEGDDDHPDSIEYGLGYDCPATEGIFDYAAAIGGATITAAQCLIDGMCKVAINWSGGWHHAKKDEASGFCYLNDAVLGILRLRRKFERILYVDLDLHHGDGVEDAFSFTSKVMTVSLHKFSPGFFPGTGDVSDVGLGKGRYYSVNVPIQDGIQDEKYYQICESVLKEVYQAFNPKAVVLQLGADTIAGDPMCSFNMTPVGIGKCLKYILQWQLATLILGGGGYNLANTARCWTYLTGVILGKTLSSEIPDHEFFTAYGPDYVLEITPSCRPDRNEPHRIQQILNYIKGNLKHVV
HDAC11 fused to Nanoluc luciferase, sequence (Q96DB2 whole entry, the tested form may be a part): as the sequence (Q96DB2 whole entry) above
HDAC11, sequence (Q96DB2 whole entry): as above

One may read the IC50 as the concentration that inhibits the measured activity by half. What is called microsomal CLint is a measure of how fast metabolising enzymes remove a compound, apart from limits set by blood flow. Low values mean greater metabolic stability, high ones faster metabolism. One may read the solubility as the concentration that dissolves in the medium under given conditions. A lower solubility goes with little dissolved substance. For `CC1(C)c2cccc(C(N)=O)c2CN1c1cnc(C(F)(F)F)cn1` [Compound 50-1, 1,1-Dimethyl-2-(5-(trifluoromethyl)pyrazin-2-yl)isoindoline-4-carboxamide], the IC50 on HDAC5 is > 1 µM; on full-length human HDAC11 (Table 6, read-out: HDAC11 IC50), > 1 µM; at full-length human HDAC11 (Table 7, read-out: HDAC IC50, HDAC 11) it was > 1 µM; at HDAC6, > 1 µM; on HDAC7, > 1 µM; at HDAC9, > 1 µM. The IC50 (at HDAC2; at HDAC4; on HDAC8; in data set [2]; at HDAC1; on HDAC10) was > 1 µM throughout. In addition, the IC50 on HDAC3 was > 1 µM. The “HDAC11 potency, in words” value on full-length human HDAC11 (comparison with parent or lead compound) is listed as “loss of all HDAC11 activity”. In [1], the microsomal CLint was < 50 µL/min/mg. The LipE entry on HDAC11 is recorded as “+ (indicates LipE≤5.5)”. Further, the “activity against all HDACs, in words” value in data set [3] is “inactive against all HDACs”. Moreover, the solubility in data set [4] was ≤ 30 µM.
